Experimental findings from US20110079773A1, “Selectively Functionalized Rylene Imides and Diimides” (priority 2009, published 2011) are described below.

≈ marks a conversion by molar mass, not a printed value. Where “and” joins values, the source holds several entries; their conditions need not be identical. Equal entries are not always repeated. Marks after values point to notes of the source that are not given here.

Common to all, as to assay type: physicochemical
Data set [1] is described as follows: Steady-state electronic absorption and fluorescence spectroscopy. The note with it: for λmax: UV-vis absorption in toluene; for E(S1): determined from the average energy of the absorption and emission maxima; for ε: extinction coefficient at λmax; for ε / λem: toluene; for λem: fluorescence emission maximum; for φF: fluorescence quantum yield. The protocol: Steady-state electronic absorption spectra were recorded on a Shimadzu 1601 UV/Vis spectrometer with a 2 mm quartz cuvette. Fluorescence measurements were performed using a PTI Quanta-Master 1 single photon counting spectrofluorimeter in a right angle configuration with a 1 cm quartz cuvette.
The intensity of the S0→>S1 transition increases with the size of the aromatic core, while the energy decreases. The fluorescence spectrum of each chromophore is shown in FIG. 4b and summarized in Table 4 along with that of compounds 1, 3, 5, 7, and 9. A similar trend with the emission maxima moving to longer wavelengths as the size of the aromatic core increases was observed. The electronic absorption and fluorescence properties of all the alkylated chromophores are very similar to those of the parent compounds. No observable trend is apparent for the slight shifts in λmax; however, with the exception of 2, all alkylated compounds have slightly lower extinction coefficients than their parent compounds. The fluorescence emission maxima of the alkylated compounds (Table 4) are similar to those of the parent compounds as reported in the literature. See Hydlovic et al., Phtochem. Photobiol. A., 112: 197-203 (1998); Licchelli et al., Chem. Eur. J., 8: 5161-5169 (2002); Weil et al., Chem. Eur. J., 8: 4742-4750 (2002); and Sadrai et al., J. Phys. Chem., 96: 7988-7996 (1992).

Data set [2] is described as follows: Femtosecond transient absorption (excited-state decay). The note with it: transient absorption decay time constant, dry toluene. From the text: Femtosecond transient absorption measurements were made using a Ti:sapphire laser system as detailed in previously reported work. See Kelley et al., J. Am. Chem. Soc., 129: 3173-3181 (2007). The wavelengths used to excite the samples were 390 nm (1-4), 416 nm (5-8), and 650 nm (9 and 10). The instrument response function for the pump-probe experiments is 160 fs. The transient spectra were obtained using 10 s of averaging at a given delay time. Glass cuvettes with a 2 mm pathlength were used and the samples were dissolved in dry toluene and irradiated with 1.0 μJ pulses at the excitation wavelength. Analysis of the kinetic data was performed at multiple wavelengths using a Levenberg-Marquardt nonlinear least-squares fit to a general sum-of-exponentials function with an added Gaussian to account for the finite instrument response.
The transient absorption spectra of naphthalene monoimide 2, specifically, the S1→>Sn absorption is characterized by a single broad band at 525 nm, which decays monoexponentially with a time constant τD=34 ps. This is similar to the time constant of other NMI compounds and is attributed to rapid intersystem crossing leading to the triplet state of 2. […] The residual 530 nm absorption band decays further with a 175 ps time constant. […]

The nature of data set [3]: Electrochemistry (redox potentials). As to conditions: for E^−1/2: first reduction potential. How it is done:
Electrochemical measurements were performed using a CH Instruments Model 622 electrochemical workstation. Measurements for compounds 4, 6, 8, and 10 were performed in dichloromethane containing 0.1 M tetrabutylammonium hexafluorophosphate (TBAPF6) electrolyte. Measurements for 2 were performed in benzonitrile with the same electrolyte. A 1.0 mm diameter platinum disk electrode, platinum wire electrode, and […] reference electrode were employed. The ferrocene/ferrocenium redox couple (Fc/Fc^+, 0.46 V vs. SCE) (see Connelly et al., Chem. Rev., 96: 877-910 (1996)) was used as an internal standard. TBAPF6 was recrystallized twice from ethyl acetate prior to use.
Alkylation (e.g., substitution of the phenethyl groups) ortho to the imide nitrogen atoms appears to render the present compounds somewhat more difficult to reduce, but easier to oxidize (Table 3). The reduction potentials of the disubstituted compounds (2, 4, and 6) are approximately 130 mV more negative than those of their parent compounds. Correspondingly, the oxidation potential of the disubstituted 6 is 40 mV less positive than that of […]. Tetrasubstituted 8 and 10 have reduction potentials that are more negative by ˜200 mV than their unsubstituted analogs. These shifts in redox potentials reasonably arise from the electron-donating nature of the alkylating (e.g., phenethyl) groups. The oxidation and reduction potentials of all alkylated molecules shift in the same direction by nearly the same amount, such that the corresponding HOMO-LUMO energy gap remains the same, as is reflected in their electronic absorption and emission spectra described below.

The next data set can be described thus: Solubility in toluene. The protocol:
As used herein, a compound can be considered soluble in a solvent when at least 0.1 mg of the compound can be dissolved in 1 mL of the solvent. Examples of common organic solvents include petroleum ethers; acetonitrile; aromatic hydrocarbons such as benzene, toluene, xylene, and mesitylene; ketones such as acetone, and methyl ethyl ketone; ethers such as tetrahydrofuran, dioxane, bis(2-methoxyethyl)ether, diethyl ether, di-isopropyl ether, and t-butyl methyl ether; alcohols such as methanol, ethanol, butanol, and isopropyl alcohol; aliphatic hydrocarbons such as hexanes; esters such as methyl acetate, ethyl acetate, methyl formate, ethyl formate, isopropyl acetate, and butyl acetate; amides such as dimethylformamide and dimethylacetamide; sulfoxides such as dimethylsulfoxide; halogenated aliphatic and aromatic hydrocarbons such as dichloromethane, chloroform, ethylene chloride, chlorobenzene, dichlorobenzene, and trichlorobenzene; and cyclic solvents such as cyclopentanone, cyclohexanone, and 2-methypyrrolidone. In various embodiments, the present compounds can have good solubility in solvents that are aromatic hydrocarbons such as benzene, toluene, xylene, and mesitylene.
Table 2 below compares the solubilities of several compounds according to the present teachings with their unsubstituted counterparts in toluene.

Setting [4] is: shift versus unsubstituted parent.

For the compound `CCCCCCCCN1C(=O)c2c(CCc3ccccc3)ccc3ccc(CCc4ccccc4)c(c23)C1=O` [Compound 2, N-(n-octyl)-2,7-bis(phenylethyl)naphthalene-1,8-dicarboximide], in data set [1], the λmax is 353 nm, the “E(S1)” value was determined as 3.34 eV, the ε is 15000 M⁻¹ cm⁻¹ and the λem was 394^ nm. In addition, in data set [1], the φF was 0.08. Further, the τD in data set [2] was 34 ps and 34 ± 1 ps. Further, the “E^−1/2” value in data set [3] (obtained in benzonitrile with 0.1 M TBAPF6) is recorded as −1.53^b. The “Reduction potential more negative than that of parent compound” value in data set [3] (setting [4]) is recorded as “approximately 130 mV”.
Turning to `CCCCC(CC)CN1C(=O)c2c(CCc3ccccc3)cc3c4cccc5cccc(c6cc(CCc7ccccc7)c(c2c36)C1=O)c54` (stereo not drawn) [Compound 6, N-(2′-ethylhexyl)-2,5-bis(phenethyl)perylene-3,4-dicarboximide], in data set [1], the λmax amounted to 501 nm, the “E(S1)” value is reported as 2.43 eV, the ε amounted to 27000 M⁻¹ cm⁻¹ and the λem was 521^ nm. Also, in data set [1], the φF worked out at 0.98. In addition, the τD in data set [2] was 4700 ± 88 ps. In addition, the “Solubility relative to unsubstituted counterpart” value in “Solubility in toluene” is reported as “three times more soluble”. Further, the solubility in the data set “Solubility in toluene” (organic solvent or mixture) stood at 6000 µg/mL (≈ 9.35 mM). Besides, the “E^−1/2” value in data set [3] (dichloromethane, 0.1 M TBAPF6, Fc/Fc+ (0.46 V vs. SCE) internal standard) is −1.13^. This compound showed an E^+1/2 in data set [3] (oxidation potential, dichloromethane, 0.1 M TBAPF6, Fc/Fc+ (0.46 V vs. SCE) internal standard) of 1.37 V. The “E^2−1/2” value in data set [3] (second reduction potential, dichloromethane, 0.1 M TBAPF6) is on record as −1.43^. For the same compound, in data set [3] (setting [4]), the “Oxidation potential less positive than that of parent” value came to 40 mV and the “Reduction potential more negative than that of parent compound” value is on record as “approximately 130 mV”.

The solubility is the concentration that dissolves in the medium under given conditions.
